Reference: patent US7566712B2, “Biaryl piperazinyl-pyridine analogues” (Neurogen Corporation, priority 2003, dated 2009)

Biological target: T1, human capsaicin receptor (Homo sapiens, UniProt Q8NER1)
T1 construct: pBK-CMV expression construct encoding the full length human capsaicin receptor; expressed in transfected cells
Experiment: Calcium mobilization assay, determination of antagonist activity (Example 6)
Assay type: cell-based
Conditions: Table II; IC50 determined as described in Example 6
Method in brief: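 HEK293 clonal lines stably expressing full-length human capsaicin receptor, loaded with Fluo-3 AM in KRH buffer pH 7.4, 1–2 h at 37 °C. Compounds (1–5 μM final) preincubated 0.5–6 h at room temperature, then capsaicin at its EC50 added. FLIPR/Fluoroskan calcium signal; IC50 as 50% decrease of capsaicin response.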

T1 sequence (Q8NER1 whole entry): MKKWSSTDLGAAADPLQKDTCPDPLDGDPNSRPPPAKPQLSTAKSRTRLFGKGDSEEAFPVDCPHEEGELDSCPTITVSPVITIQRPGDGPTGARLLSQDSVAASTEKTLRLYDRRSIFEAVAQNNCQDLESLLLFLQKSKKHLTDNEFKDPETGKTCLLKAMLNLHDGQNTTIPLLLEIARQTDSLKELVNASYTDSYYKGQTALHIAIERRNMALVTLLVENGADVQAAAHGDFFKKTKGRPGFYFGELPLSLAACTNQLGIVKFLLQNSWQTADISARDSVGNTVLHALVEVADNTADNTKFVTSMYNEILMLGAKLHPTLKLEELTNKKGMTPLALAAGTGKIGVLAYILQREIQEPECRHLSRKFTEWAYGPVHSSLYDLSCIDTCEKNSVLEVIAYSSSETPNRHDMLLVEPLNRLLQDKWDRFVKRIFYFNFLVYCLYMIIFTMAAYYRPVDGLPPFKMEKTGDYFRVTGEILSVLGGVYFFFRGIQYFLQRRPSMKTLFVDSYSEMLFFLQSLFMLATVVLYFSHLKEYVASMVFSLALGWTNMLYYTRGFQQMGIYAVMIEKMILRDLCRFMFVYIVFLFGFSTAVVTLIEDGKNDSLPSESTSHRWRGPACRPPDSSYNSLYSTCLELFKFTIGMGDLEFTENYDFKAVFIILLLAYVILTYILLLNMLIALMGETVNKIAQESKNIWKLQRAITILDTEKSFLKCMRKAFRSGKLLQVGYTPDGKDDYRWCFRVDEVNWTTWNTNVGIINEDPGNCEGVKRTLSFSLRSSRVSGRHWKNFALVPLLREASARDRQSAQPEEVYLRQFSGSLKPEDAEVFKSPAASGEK

IC50, ≤ 1000 nM:
Fc1ccc(-c2cc(N3CCN(c4ncccc4C(F)(F)F)CC3)nc(OC3CCOCC3)n2)cc1Cl [Example 557, 4-(3-chloro-4-fluorophenyl)-2-(tetrahydro-2H-pyran-4-yloxy)-6-{4-[3-(trifluoromethyl)pyridin-2-yl]piperazin-1-yl}pyrimidane]
CN1CCC(N(C)c2nc(-c3ccc(F)c(Cl)c3)cc(N3CCN(c4ncccc4C(F)(F)F)CC3)n2)C1 (centres unmarked) [Example 564, 4-(3-chloro-4-fluorophenyl)-N-methyl-N-(1-methylpyrrolidin-3-yl)-6-{4-[3-(trifluoromethyl)pyridin-2-yl]piperazin-1-yl}pyrimidin-2-amine]
C=CCN1CCN(c2nc(-c3ccc(F)c(C)c3)nc(N3CCN(c4ncccc4C(F)(F)F)CC3)n2)CC1 [Example 450, 2-(4-allylpiperazin-1-yl)-4-(4-fluoro-3-methylphenyl)-6-{4-[3-(trifluoromethyl)pyridin-2-yl]piperazin-1-yl}-1,3,5-triazine]
CCCc1ccc(-c2cc(N3CCN(c4ncccc4C#N)C[C@H]3C)nc(N3CCOCC3)n2)cc1 [Example 512, 2-{(3R)-3-methyl-4-[2-morpholin-4-yl-6-(4-propylphenyl)pyrimidin-4-yl]piperazin-1-yl}nicotinonitrile]

Same assay, conditions: Table II; IC50 determined as described in Example 6 (antagonist activity, calcium mobilization)

IC50, ≤ 1000 nM:
Cc1cccnc1N1CCN(c2cc(-c3ccc(F)c(Cl)c3)nc(N(C)[C@@H](C)CO)n2)CC1 [Example 1016, (2S)-2-[{4-(3-chloro-4-fluorophenyl)-6-[4-(3-methylpyridin-2-yl)piperazin-1-yl]pyrimidin-2-yl}(methyl)amino]propan-1-ol]
Cc1ccc(-c2cc(N3CCN(c4nccnc4Cl)C[C@H]3C)nc(N3CCC[C@@H]3C)n2)cc1F [Example 992, 4-[(2R)-4-(3-chloropyrazin-2-yl)-2-methylpiperazin-1-yl]-6-(3-fluoro-4-methylphenyl)-2-[(2S)-2-methylpyrrolidin-1-yl]pyrimidine]
Cc1ccc(-c2cc(N3CCN(c4nccnc4Cl)C[C@H]3C)nc(N3CCOCC3)n2)cc1F [Example 993, 4-[4-[(2R)-4-(3-chloropyrazin-2-yl)-2-methylpiperazin-1-yl]-6-(3-fluoro-4-methylphenyl)pyrimidin-2-yl]morpholine]

Same assay, conditions: Table II; determined as described in Example 6 (antagonist activity); "*" = 1 micromolar or less

IC50, ≤ 1000 nM:
COc1ccc(Cl)c(N2CCN(c3cc(-c4ccc(F)cc4)nc(N4CCCC4C)n3)[C@H](C)C2)n1 (some centres unmarked) [Example 955, 4-[4-(3-chloro-6-methoxypyridin-2-yl)-2-methylpiperazin-1-yl]-6-(4-fluorophenyl)-2-(2-methylpyrrolidin-1-yl)pyrimidine]
C[C@@H]1CCCN1c1cc(-c2ccc(Cl)c(F)c2)nc(N2CCN(c3ncccc3Cl)C[C@@H]2C)n1 [Example 960, 4-(4-chloro-3-fluorophenyl)-2-[(2S)-4-(3-chloropyridin-2-yl)-2-methylpiperazin-1-yl]-6-[(2R)-2-methylpyrrolidin-1-yl]pyrimidine]
CC1CCCN1c1nc(-c2ccc(F)cc2)cc(N2CCN(c3nccnc3Cl)C[C@H]2C)n1 (some centres unmarked) [Example 926, 4-[4-(3-chloropyrazin-2-yl)-2-methylpiperazin-1-yl]-6-(4-fluorophenyl)-2-(2-methylpyrrolidin-1-yl)pyrimidine]
CN(C)CCCc1cccc(-c2cc(N3CCN(c4ncccc4C(F)(F)F)CC3)nc(N3CCOCC3)n2)c1 [Example 851, N,N-dimethyl-3-[3-(2-morpholin-4-yl-6-{4-[3-(trifluoromethyl)pyridin-2-yl]piperazin-1-yl}pyrimidin-4-yl)phenyl]propan-1-amine]
CC(=O)c1nc(-c2ccc(F)c(F)c2)cc(N2CCN(c3ncccc3C(F)(F)F)CC2)n1 [Example 862, 1-(4-(3,4-difluorophenyl)-6-{4-[3-(trifluoromethyl)pyridin-2-yl]piperazin-1-yl}pyrimidin-2-yl)ethanone]
C[C@@H]1CCCN1c1nc(-c2ccc(F)c(Cl)c2)cc(N2CCN(c3ncccc3Cl)C[C@@H]2C)n1 [Example 945, 4-(3-chloro-4-fluorophenyl)-6-[(2S)-4-(3-chloropyridin-2-yl)-2-methylpiperazin-1-yl]-2-[(2R)-2-methylpyrrolidin-1-yl]pyrimidine]
C[C@@H]1CN(c2ncccc2Cl)CCN1c1cc(-c2cncc(Cl)c2)nc(N2CCOCC2)n1 [Example 837, 4-{4-(5-chloropyridin-3-yl)-6-[(2R)-4-(3-chloropyridin-2-yl)-2-methylpiperazin-1-yl]pyrimidin-2-yl}morpholine]
CCCN1CCC(c2nc(-c3ccc(F)c(Cl)c3)cc(N3CCN(c4ncccc4C(F)(F)F)CC3)n2)CC1 [Example 872, 4-(3-chloro-4-fluorophenyl)-2-(1-propylpiperidin-4-yl)-6-{4-[3-(trifluoromethyl)pyridin-2-yl]piperazin-1-yl}pyrimidine]
CC(=O)c1ccc(-c2cc(N3CCN(c4ncccc4Cl)C[C@H]3C)nc(N3CCOCC3)n2)cc1 [Example 858, 1-(4-{6-[(2R)-4-(3-chloropyridin-2-yl)-2-methylpiperazin-1-yl]-2-morpholin-4-ylpyrimidin-4-yl}phenyl)ethanone]
C[C@H]1CN(c2ncccc2Cl)CCN1c1cc(-c2ccc(F)c(Cl)c2)nc(N2CCOCC2)n1 [Example 947, 4-{4-(3-chloro-4-fluorophenyl)-6-[(2S)-4-(3-chloropyridin-2-yl)-2-methylpiperazin-1-yl]pyrimidin-2-yl}morpholine]
CC1CCCN1c1nc(-c2ccc(F)c(F)c2)cc(N2CCN(c3nccnc3Cl)C[C@H]2C)n1 (some centres unmarked) [Example 821, 4-[4-(3-chloropyrazin-2-yl)-2-methylpiperazin-1-yl]-6-(3,4-difluorophenyl)-2-(2-methylpyrrolidin-1-yl)pyrimidine]
Fc1ccc(-c2cc(N3CCN(c4ncccc4C(F)(F)F)CC3)nc(N3C[C@H]4C[C@@H]3CN4)n2)cc1Cl [Example 775, (1R,4R)-2-(4-(3-chloro-4-fluorophenyl)-6-{4-[3-(trifluoromethyl)pyridin-2-yl]piperazin-1-yl}pyrimidin-2-yl)-2,5-diazabicyclo[2.2.1]heptane]
Cc1cc(-c2cc(N3CCN(c4ncccc4Cl)C[C@H]3C)nc(N3CCC3C)n2)ccc1F (stereo partly drawn) [Example 785, 4-[(2R)-4-(3-chloropyridin-2-yl)-2-methylpiperazin-1-yl]-6-(4-fluoro-3-methylphenyl)-2-(2-methylazetidin-1-yl)pyrimidine]

Same assay, conditions: determined as described in Example 6 (calcium mobilization, antagonist activity); Table II

IC50, ≤ 1000 nM:
COC[C@H]1CCCN1c1nc(-c2ccc(F)c(C)c2)cc(N2CCN(c3ncccc3C(F)(F)F)C[C@H]2C)n1 [Example 761, 4-(4-fluoro-3-methylphenyl)-2-[(2R)-2-(methoxymethyl)pyrrolidin-1-yl]-6-{(2R)-2-methyl-4-[3-(trifluoromethyl)pyridin-2-yl]piperazin-1-yl}pyrimidine]
Cc1cc(-c2cc(N3CCN(c4ncccc4C(F)(F)F)C[C@H]3C)nc(N3CCCCC3)n2)ccc1F [Example 759, 4-(4-fluoro-3-methylphenyl)-6-{(2R)-2-methyl-4-[3-(trifluoromethyl)pyridin-2-yl]piperazin-1-yl}-2-piperidin-1-ylpyrimidine]
CC(C)c1nc(-c2ccc(F)c(Cl)c2)cc(N2CCN(c3ncccc3C(F)(F)F)CC2)n1 [Example 605, 4-(3-chloro-4-fluorophenyl)-2-isopropyl-6-{4-[3-(trifluoromethyl)pyridin-2-yl]piperazin-1-yl}pyrimidine]
Cc1cccnc1N1CCN(c2cc(-c3ccc(F)cc3)nc(N3CCCC3C)n2)CC1 (centres unmarked) [Example 702, 4-(4-fluorophenyl)-6-[4-(3-methylpyridin-2-yl)piperazin-1-yl]-2-(2-methylpyrrolidin-1-yl)pyrimidine]
Fc1ccc(-c2cc(N3CCN(c4ncccc4C(F)(F)F)CC3)nc(N3CCC(CCN4CCCC4)CC3)n2)cc1Cl [Example 665, 4-(3-chloro-4-fluorophenyl)-2-[4-(2-pyrrolidin-1-ylethyl)piperidin-1-yl]-6-{4-[3-(trifluoromethyl)pyridin-2-yl]piperazin-1-yl}pyrimidine]
O=C1CN(c2cc(-c3ccc(F)c(Cl)c3)nc(N3CCOCC3)n2)CCN1c1ccccn1 [Example 659, 4-[6-(3-chloro-4-fluorophenyl)-2-morpholin-4-ylpyrimidin-4-yl]-1-pyridin-2-ylpiperazin-2-one]
CC(C)Nc1nc(-c2ccc(F)c(Cl)c2)cc(N2CCN(c3ncccc3C(F)(F)F)CC2)n1 [Example 580, 4-(3-chloro-4-fluorophenyl)-N-isopropyl-6-{4-[3-(trifluoromethyl)pyridin-2-yl]piperazin-1-yl}pyrimidin-2-amine]
Fc1ccc(-c2cc(N3CCN(c4ncccc4Cl)CC3)nc(N3CCCC3)n2)cc1Cl [Example 713, 4-(3-chloro-4-fluorophenyl)-6-[4-(3-chloropyridin-2-yl)piperazin-1-yl]-2-pyrrolidin-1-ylpyrimidine]
CCN(CC)c1nc(-c2ccc(C)nc2)cc(N2CCN(c3ncccc3C(F)(F)F)CC2)n1 [Example 607, N,N-diethyl-4-(6-methylpyridin-3-yl)-6-{4-[3-(trifluoromethyl)pyridin-2-yl]piperazin-1-yl}pyrimidin-2-amine]
